Test results reported in US8586505B2 (SDS Biotech K. K., priority 2009, dated 2013).
Where two headings read alike, the source gives them in different places.

Tests used:
Assay type in all cases: in vivo
[1] = system: Pseudoperonospora cubensis; test: Test of examining control effect on Pseudoperonospora cubensis (potted cucumber plants); conditions: 96 h, 10% wettable powder adjusted to 125 ppm, 15 ml/pot sprayed on potted cucumber plants one day before spray inoculation, assessed after 1 day wet chamber and 3 days greenhouse, read-out: Determination of control effect (preventive value) on Pseudoperonospora cubensis
Summary of the method: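 Cucumber plants (Sagamihanjiro, 2.5-leaf stage) sprayed with 125 ppm compound solution from 10% wettable powder, 15 ml/pot. One day later, spray-inoculated with P. cubensis conidia (1.0×10^4 cells/ml), kept 1 day at 21° C wet, then 3 days in greenhouse. Preventive value derived from lesion area relative to untreated plants.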

Sphaerotheca fuliginea = test: Test of examining control effect on Sphaerotheca fuliginea (potted cucumber plants); conditions: Podosphaera fuliginea, 336 h, 10% wettable powder adjusted to 125 ppm, 15 ml/pot sprayed on potted cucumber plants one day before spray inoculation, assessed after 14 days in greenhouse, read-out: Determination of control effect (preventive value) on Sphaerotheca fuliginea
Summary of the method: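 Cucumber plants (Sagamihanjiro, 2nd leaf stage) sprayed with 125 ppm compound (from 10% wettable powder), inoculated one day later with S. fuliginea conidia (1.0×10^5 cells/ml); lesion area scored after 14 days in greenhouse. Preventive value vs untreated; ≥60% high, <60% low control.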

Phytophthora infestans = test: whole plant or invertebrate; conditions: in Solanum lycopersicum, 96 h, read-out: Determination of control effect (preventive value)

Row | Compound | pest or weed control at 125 µg/mL [1] | pest or weed control at 125 µg/mL (Sphaerotheca fuliginea) | pest or weed control at 125 ppm (Phytophthora infestans) | pest or weed control at 125 µg/mL ([1]; in Cucumis sativus) | pest or weed control at 125 µg/mL (Sphaerotheca fuliginea; in Cucumis sativus)
1 | CC(CC#Cc1ccc(C(F)(F)F)cc1Cl)Nc1ncnc2ccccc12 (stereo not drawn) [compound 282] | 60 to 100% | 60 to 100% | 0 to 60% | – | –
2 | CC(CC#Cc1ccc(Cl)c(C(F)(F)F)c1)Nc1ncnc2ccccc12 (stereo not drawn) [compound 284] | 60 to 100% | 60 to 100% | 0 to 60% | – | –
3 | COc1ccc(C#CCC(C)Nc2ncnc3ccccc23)c(C(F)(F)F)c1 (stereo not drawn) [compound 287] | 60 to 100% | 60 to 100% | 0 to 60% | – | –
4 | CC(CC#Cc1ccccc1S(C)(=O)=O)Nc1ncnc2ccccc12 (stereo not drawn) [compound 290] | 60 to 100% | 60 to 100% | 60 to 100% | – | –
5 | Cc1nc(C#CCC(C)Nc2ncnc3ccccc23)cs1 (stereo not drawn) [compound 292] | 60 to 100% | 60 to 100% | 60 to 100% | – | –
6 | CC(CC#Cc1csc(Oc2ccccc2)n1)Nc1ncnc2ccccc12 (stereo not drawn) [compound 293] | 60 to 100% | 60 to 100% | 60 to 100% | – | –
7 | CCC(CC#Cc1ccc(F)cc1)Nc1ncnc2ccccc12 (stereo not drawn) [compound 294] | 60 to 100% | 60 to 100% | 0 to 60% | – | –
8 | CCC(CC#Cc1ccc(F)cc1C(F)(F)F)Nc1ncnc2ccccc12 (stereo not drawn) [compound 295] | 60 to 100% | 60 to 100% | 0 to 60% | – | –
9 | C=CC(CC#Cc1ccccc1)Nc1ncnc2ccccc12 (stereo not drawn) [compound 296] | 60 to 100% | 60 to 100% | 60 to 100% | – | –
10 | C=CC(CC#Cc1ccc(F)cc1)Nc1ncnc2ccccc12 (stereo not drawn) [compound 297] | 60 to 100% | 60 to 100% | 0 to 60% | – | –
11 | CC(C)C(CC#Cc1ccccc1)Nc1ncnc2ccccc12 (stereo not drawn) [compound 298] | 60 to 100% | 60 to 100% | 60 to 100% | – | –
12 | OCC(CC#Cc1ccccc1)Nc1ncnc2ccccc12 (stereo not drawn) [compound 299] | 60 to 100% | 0 to 60% | 60 to 100% | – | –
13 | C#CCC(Nc1ncnc2ccccc12)c1ccccc1 (stereo not drawn) [compound 300, 4-[(1-Phenyl-3-butynyl)amino]quinazoline] | 60 to 100% | 60 to 100% | 0 to 60% | – | –
14 | CCOC(=O)C(CC#Cc1ccccc1)Nc1ncnc2ccccc12 (stereo not drawn) [compound 303] | – | – | 0 to 60% | 60 to 100% | 0 to 60%
15 | CCOC(=O)C(CC#Cc1ccccc1C(F)(F)F)Nc1ncnc2ccccc12 (stereo not drawn) [compound 304] | 60 to 100% | 60 to 100% | 0 to 60% | – | –
16 | CNC(=O)C(CC#Cc1ccccc1)Nc1ncnc2ccccc12 (stereo not drawn) [compound 305] | – | – | 0 to 60% | 60 to 100% | 0 to 60%
17 | Fc1cccc2c(NCCC#Cc3ccccc3C(F)(F)F)ncnc12 [compound 306] | 60 to 100% | 60 to 100% | 60 to 100% | – | –
18 | FC(F)(F)c1ccccc1C#CCCNc1ncnc2c(Cl)cccc12 [compound 307] | 60 to 100% | 60 to 100% | 0 to 60% | – | –
19 | FC(F)(F)c1ccccc1C#CCCNc1ncnc2ccc(Cl)cc12 [compound 309] | 60 to 100% | 60 to 100% | 0 to 60% | – | –
20 | FC(F)(F)c1ccccc1C#CCCNc1ncnc2cccc(Cl)c12 [compound 310] | 60 to 100% | 60 to 100% | 0 to 60% | – | –
21 | COCc1ccccc1C#CCCNc1ncnc2c(Cl)cccc12 [compound 311] | 60 to 100% | 60 to 100% | 60 to 100% | – | –
22 | COCc1ccccc1C#CCCNc1ncnc2cc(Cl)ccc12 [compound 312] | 60 to 100% | 60 to 100% | 0 to 60% | – | –
23 | COCc1ccccc1C#CCCNc1ncnc2ccc(Cl)cc12 [compound 313] | 60 to 100% | 60 to 100% | 0 to 60% | – | –
24 | COCc1ccccc1C#CCCNc1ncnc2cccc(Cl)c12 [compound 314] | 60 to 100% | 60 to 100% | 0 to 60% | – | –

Row | Compound | pest or weed control at 125 µg/mL [1] | pest or weed control at 125 µg/mL (Sphaerotheca fuliginea) | pest or weed control at 125 ppm (Phytophthora infestans) | pest or weed control at 125 µg/mL ([1]; in Cucumis sativus) | pest or weed control at 125 µg/mL (Sphaerotheca fuliginea; in Cucumis sativus)
25 | COCc1ccccc1C#CCCNc1ncnc2c(F)cccc12 [compound 315] | 60 to 100% | 60 to 100% | 60 to 100% | – | –
26 | COCc1ccccc1C#CCCNc1ncnc2cc(F)ccc12 [compound 316] | 60 to 100% | 60 to 100% | 60 to 100% | – | –
27 | COCc1ccccc1C#CCCNc1ncnc2ccc(F)cc12 [compound 317] | 60 to 100% | 60 to 100% | 60 to 100% | – | –
28 | COCc1ccccc1C#CCCNc1ncnc2cccc(F)c12 [compound 318] | 60 to 100% | 60 to 100% | 60 to 100% | – | –
29 | COCc1ccccc1C#CCCNc1ncnc2cc(F)c(F)cc12 [compound 319] | 60 to 100% | 60 to 100% | 60 to 100% | – | –
30 | COCc1ccccc1C#CCCNc1ncnc2cc(Br)ccc12 [compound 320] | 60 to 100% | 60 to 100% | 0 to 60% | – | –
31 | COCc1ccccc1C#CCCNc1ncnc2ccc(Br)cc12 [compound 321] | 60 to 100% | 60 to 100% | 0 to 60% | – | –
32 | COCc1ccccc1C#CCCNc1ncnc2c(C(F)(F)F)cccc12 [compound 323] | 60 to 100% | 60 to 100% | 60 to 100% | – | –
33 | COCc1ccccc1C#CCCNc1ncnc2cc(C(F)(F)F)ccc12 [compound 324] | 60 to 100% | 0 to 60% | 0 to 60% | – | –
34 | COCc1ccccc1C#CCCNc1ncnc2c(C)cccc12 [compound 325] | 60 to 100% | 60 to 100% | 60 to 100% | – | –
35 | COCc1ccccc1C#CCCNc1ncnc2ccc(C)cc12 [compound 326] | 60 to 100% | 60 to 100% | 0 to 60% | – | –
36 | COCc1ccccc1C#CCCNc1ncnc2c(C)cc(Cl)cc12 [compound 327] | 60 to 100% | 0 to 60% | 0 to 60% | – | –
37 | COCc1ccccc1C#CCCNc1ncnc2c(OC)cccc12 [compound 328] | 60 to 100% | 60 to 100% | 0 to 60% | – | –
38 | COCc1ccccc1C#CCCNc1ncnc2ccc(OC)cc12 [compound 329] | 60 to 100% | 60 to 100% | 60 to 100% | – | –
39 | COCc1ccccc1C#CCCNc1ncnc2ccc(C#N)cc12 [compound 330] | 60 to 100% | 0 to 60% | 60 to 100% | – | –
40 | COCc1ccccc1C#CCCNc1ncnc2ccc([N+](=O)[O-])cc12 [compound 331] | 60 to 100% | 0 to 60% | 0 to 60% | – | –
41 | COCc1ccccc1C#CCCNc1ncnc2ccc(SC)cc12 [compound 332] | 60 to 100% | 0 to 60% | 0 to 60% | – | –
42 | COCc1ccccc1C#CCCNc1ncnc2ccc(-c3ccccc3)cc12 [compound 333] | 60 to 100% | 0 to 60% | 0 to 60% | – | –
43 | COCc1ccccc1C#CCCNc1ncnc2ccc(-c3ccccc3F)cc12 [compound 334] | 60 to 100% | 0 to 60% | 0 to 60% | – | –
44 | COCc1ccccc1C#CCCNc1ncnc2ccc(-c3cccc(F)c3)cc12 [compound 335] | 60 to 100% | 0 to 60% | 0 to 60% | – | –
45 | COCc1ccccc1C#CCCNc1ncnc2ccc(-c3ccc(F)cc3)cc12 [compound 336] | 60 to 100% | 0 to 60% | 0 to 60% | – | –
46 | COCc1ccccc1C#CCCNc1ncnc2ccc(-c3cccnc3)cc12 [compound 337] | 60 to 100% | 0 to 60% | 0 to 60% | – | –
47 | COCc1ccccc1C#CCCNc1ncnc2ccc(OCC#Cc3ccccc3)cc12 [compound 339] | 60 to 100% | 0 to 60% | 0 to 60% | – | –
